ChEMBL document CHEMBL4480433, “Investigation of B,C-ring truncated deguelin derivatives as heat shock protein 90 (HSP90) inhibitors for use as anti-breast cancer agents” (Bioorg Med Chem, 2019)
Calls of active or inactive are those of the source. The calls are words filed in the database; no cut-off is given here.

Key:
[1] = biological target: T1, Heat shock protein HSP90 (Homo sapiens) (UniProt P07900+P08238); experiment: Inhibition of HSP90 in human H1299 cells assessed as reduction in HIF-1alpha at 100 nM incubated for 72 hrs and subsequently incubated under hypoxic conditions for 12 hrs by Western blot analysis relative to control; assay type: cell-based; conditions: values are per cent of control
[2] = biological target: T1, Heat shock protein HSP90 (Homo sapiens); experiment: Inhibition of HSP90 in human H1299 cells assessed as reduction in HIF-1alpha at 10 nM incubated for 72 hrs and subsequently incubated under hypoxic conditions for 12 hrs by Western blot analysis relative to control; assay type: cell-based; conditions: values are per cent of control
[3] = biological target: T1, Heat shock protein HSP90 (Homo sapiens); experiment: Inhibition of HSP90 in human H1299 cells assessed as reduction in HIF-1alpha incubated for 72 hrs and subsequently incubated under hypoxic conditions for 12 hrs by Western blot analysis relative to control; assay type: cell-based
[4] = tested on: MDA-MB-231; experiment: Inhibition of HSP90 in human MDA-MB-231 cells assessed as reduction in phosphorylated-STAT3/total-STAT3 ratio at 5 to 10 uM after 72 hrs by immunoblot analysis; assay type: cell-based
[5] = tested on: 4T1; experiment: Cytotoxicity against mouse 4T1 cells at 10 uM after 72 hrs by MTS assay; assay type: functional, cell-based
[6] = tested on: MDA-MB-231; experiment: Cytotoxicity against human MDA-MB-231 cells at 10 uM after 72 hrs by MTS assay; assay type: functional, cell-based
[7] = tested on: MDA-MB-231; experiment: Induction of morphological changes in human MDA-MB-231 cells assessed as cytoplasmic shrinkage at 2 to 10 uM after 72 hrs by phase contrast microscopic analysis; assay type: functional, cell-based
[8] = tested on: MDA-MB-231; experiment: Inhibition of HSP90 in human MDA-MB-231 cells assessed as reduction in phosphorylated-AKT/total-AKT ratio at 5 to 10 uM after 72 hrs by immunoblot analysis; assay type: cell-based
[9] = tested on: MDA-MB-231; experiment: Inhibition of ERK phosphorylation in human MDA-MB-231 cells at 5 to 10 uM after 72 hrs by immunoblot analysis; assay type: cell-based
[10] = tested on: MDA-MB-231; experiment: Effect on ERK protein level in human MDA-MB-231 cells at 2 to 10 uM after 72 hrs by immunoblot analysis; assay type: functional, cell-based
[11] = tested on: MDA-MB-231; experiment: Inhibition of HSP90 in human MDA-MB-231 cells assessed as reduction in phosphorylated-MEK/total-MEK ratio at 5 to 10 uM after 72 hrs by immunoblot analysis; assay type: cell-based; conditions: Hofmanni bacterium

response, % of control [1]	response, % of control [2]	SMILES	other results
68.5%		COc1ccc(N(CCCN)C(=O)c2ccc3c(c2OC)C=CC(C)(C)O3)c(F)c1OC	
87.9%		COc1ccc(N(CCO)C(=O)c2ccc3c(c2OC)C=CC(C)(C)O3)nc1OC	
45.3%	111%	COc1ccc(N(CCCN)C(=O)c2ccc3c(c2OC)C=CC(C)(C)O3)nc1OC	
147%		COc1ccc(N(CCN)C(=O)c2ccc3c(c2OC)C=CC(C)(C)O3)c(F)c1OC	
101%		COc1ccc(NC(=O)c2ccc3c(c2OC)C=CC(C)(C)O3)c(F)c1OC	
65.4%		COc1ccc(N(CCOCc2ccccc2)C(=O)c2ccc3c(c2OC)C=CC(C)(C)O3)c(F)c1OC	
41.2%	93%	CNCCN(C(=O)c1ccc2c(c1OC)C=CC(C)(C)O2)c1ccc(OC)c(OC)n1	
54.3%		COc1ccc(N(CCN2CCCCC2)C(=O)c2ccc3c(c2OC)C=CC(C)(C)O3)c(F)c1OC	
58.1%	66%	COc1ccc(N(CCNC(C)=O)C(=O)c2ccc3c(c2OC)C=CC(C)(C)O3)nc1OC	inhibition [3]: Dose-dependent effect
60.8%		COc1ccc(N(Cc2ccccc2)C(=O)c2ccc3c(c2OC)C=CC(C)(C)O3)c(F)c1OC	
59.3%		COCCN(C(=O)c1ccc2c(c1OC)C=CC(C)(C)O2)c1ccc(OC)c(OC)c1F	
33.3%	64%	COc1ccc(N(CCN)C(=O)c2ccc3c(c2OC)C=CC(C)(C)O3)nc1OC	inhibition [3]: Dose-dependent effect
107%		CNCCN(C(=O)c1ccc2c(c1OC)C=CC(C)(C)O2)c1ccc(OC)c(OC)c1F	
75.9%		CNCCN(C(=O)c1ccc2c(c1OC)C=CC(C)(C)O2)c1ccc(OC)c(OC)c1	
54.9%		COc1ccc(N(CCN2CCNCC2)C(=O)c2ccc3c(c2OC)C=CC(C)(C)O3)c(F)c1OC	
100%		COc1ccc(N(CCCN)C(=O)c2ccc3c(c2OC)C=CC(C)(C)O3)cc1OC	
37.9%	75.5%	COc1ccc(N(CCN(C)C)C(=O)c2ccc3c(c2OC)C=CC(C)(C)O3)nc1OC	inhibition [3]: Dose-dependent effect
71%		COc1ccc(N(CCN(C)C)C(=O)c2ccc3c(c2OC)C=CC(C)(C)O3)cc1OC	
65.5%		COCCN(C(=O)c1ccc2c(c1OC)C=CC(C)(C)O2)c1ccc(OC)c(OC)c1	
52.5%		COCCN(C(=O)c1ccc2c(c1OC)C=CC(C)(C)O2)c1ccc(OC)c(OC)n1	
53.3%	97.9%	COc1ccc(N(CCN(C)C)C(=O)c2ccc3c(c2OC)C=CC(C)(C)O3)c(F)c1OC	
53.7%	81.2%	COc1ccc(N(CCN2CCN(C)CC2)C(=O)c2ccc3c(c2OC)C=CC(C)(C)O3)c(F)c1OC	
39.4%	62.1%	COc1ccc(N(CCN)C(=O)c2ccc3c(c2OC)C=CC(C)(C)O3)cc1OC	inhibition [3]: Dose-dependent effect
93.1%		COc1ccc(N(C)C(=O)c2ccc3c(c2OC)C=CC(C)(C)O3)c(F)c1OC	
48.8%	111%	COc1ccc(N(CCN2CCOCC2)C(=O)c2ccc3c(c2OC)C=CC(C)(C)O3)c(F)c1OC	
76.6%		COc1ccc(N(CCCNC(C)=O)C(=O)c2ccc3c(c2OC)C=CC(C)(C)O3)nc1OC	
124%		COc1ccc(N(CCO)C(=O)c2ccc3c(c2OC)C=CC(C)(C)O3)c(F)c1OC	
133%		COc1ccc(N(CCO)C(=O)c2ccc3c(c2OC)C=CC(C)(C)O3)cc1OC	
127%		COc1ccc(N(CCNC(C)=O)C(=O)c2ccc3c(c2OC)C=CC(C)(C)O3)cc1OC	
126%		COc1ccc(N(C)C(=O)c2ccc3c(c2OC)C=CC(C)(C)O3)cc1OC	

Second part, the compound before the results:

SMILES	response, % of control [1]	response, % of control [2]	other results
COc1ccc(N(C(=O)c2ccc3c(c2OC)C=CC(C)(C)O3)c2ccc(C)cc2)cc1OC	58.9%		
COc1ccc(N(CCN2CCCCC2)C(=O)c2ccc3c(c2OC)C=CC(C)(C)O3)cc1OC	83.7%		
COc1ccc(N(Cc2ccncc2)C(=O)c2ccc3c(c2OC)C=CC(C)(C)O3)nc1OC	55.2%	108%	
COc1ccc(N(C(=O)c2ccc3c(c2OC)C=CC(C)(C)O3)c2ccc(OC)c(OC)c2)cc1	61.9%		
COc1ccc(N(CCCN(C)C)C(=O)c2ccc3c(c2OC)C=CC(C)(C)O3)nc1OC	44%	65.6%	inhibition [3]: Dose-dependent effect
COc1ccc(N(Cc2ccc(F)cc2)C(=O)c2ccc3c(c2OC)C=CC(C)(C)O3)nc1OC	63.1%	104%	
COc1ccc(N(CCN2CCCC2)C(=O)c2ccc3c(c2OC)C=CC(C)(C)O3)nc1OC	66%		
COc1ccc(N(CCN2CCOCC2)C(=O)c2ccc3c(c2OC)C=CC(C)(C)O3)nc1OC	60.3%	72.9%	inhibition [3]: Dose-dependent effect
COc1ccc(CN(C(=O)c2ccc3c(c2OC)C=CC(C)(C)O3)c2ccc(OC)c(OC)n2)cc1	77%		
COc1ccc(N(C(=O)c2ccc3c(c2OC)C=CC(C)(C)O3)c2ccccc2)cc1OC	52.8%	83.7%	
COc1ccc(N(Cc2ccc(C)cc2)C(=O)c2ccc3c(c2OC)C=CC(C)(C)O3)nc1OC	71.1%		
COc1ccc(N(CCOCc2ccccc2)C(=O)c2ccc3c(c2OC)C=CC(C)(C)O3)nc1OC	57.2%	69.3%	inhibition [3]: Dose-dependent effect
COc1ccc(N(Cc2cccnc2)C(=O)c2ccc3c(c2OC)C=CC(C)(C)O3)nc1OC	95.8%		
COc1ccc(N(C)C(=O)c2ccc3c(c2OC)C=CC(C)(C)O3)nc1OC	62.3%	90.4%	
COc1ccc(N(CCN2CCNCC2)C(=O)c2ccc3c(c2OC)C=CC(C)(C)O3)nc1OC	59.4%		
COc1ccc(N(Cc2ccccc2)C(=O)c2ccc3c(c2OC)C=CC(C)(C)O3)cc1OC	69.8%		
COc1ccc(N(C(=O)c2ccc3c(c2OC)C=CC(C)(C)O3)c2ccc(F)cc2)cc1OC	70.2%		
COc1ccc(N(CCNC(=O)OC(C)(C)C)C(=O)c2ccc3c(c2OC)C=CC(C)(C)O3)nc1OC	57.4%		

SMILES	response, % of control [1]	response, % of control [2]	other results
COc1ccc(N(Cc2cccc(F)c2)C(=O)c2ccc3c(c2OC)C=CC(C)(C)O3)nc1OC	85.7%		
COc1ccc(N(CCNC(=O)OC(C)(C)C)C(=O)c2ccc3c(c2OC)C=CC(C)(C)O3)cc1OC	70.3%		
COc1ccc(N(CCN2CCOCC2)C(=O)c2ccc3c(c2OC)C=CC(C)(C)O3)cc1OC	117%		
COc1ccc(N(Cc2ccccc2)C(=O)c2ccc3c(c2OC)C=CC(C)(C)O3)nc1OC	38.6%	83.4%	
COc1ccc(N(CCN2CCN(C)CC2)C(=O)c2ccc3c(c2OC)C=CC(C)(C)O3)cc1OC	61.9%		
COc1ccc(N(Cc2ccc(Cl)cc2)C(=O)c2ccc3c(c2OC)C=CC(C)(C)O3)nc1OC	57.6%		
COc1ccc(N(CCN2CCN(C)CC2)C(=O)c2ccc3c(c2OC)C=CC(C)(C)O3)nc1OC	42.2%	97.2%	
COc1ccc(N(CCN2CCCCC2)C(=O)c2ccc3c(c2OC)C=CC(C)(C)O3)nc1OC	79.7%		
COc1ccc(NC(=O)c2ccc3c(c2OC)C=CC(C)(C)O3)cc1OC	147%		
CCN(CC)CCN(C(=O)c1ccc2c(c1OC)C=CC(C)(C)O2)c1ccc(OC)c(OC)n1	64.4%		
COc1ccc(N(CCN2CCNCC2)C(=O)c2ccc3c(c2OC)C=CC(C)(C)O3)cc1OC	51.9%	60.6%	inhibition [4]: Active; Activity [5]: Active; Activity [6]: Active; Activity [7]: Active; inhibition [8]: Active; inhibition [9]: Active; Activity [10]: inactive; inhibition [3]: Dose-dependent effect; inhibition [11]: Active
COc1ccc(N(Cc2cccc(Cl)c2)C(=O)c2ccc3c(c2OC)C=CC(C)(C)O3)nc1OC	80.2%		
COc1ccc(N(C(=O)c2ccc3c(c2OC)C=CC(C)(C)O3)c2ccc(Cl)cc2)cc1OC	81.2%		
COc1ccc(N(Cc2ccccn2)C(=O)c2ccc3c(c2OC)C=CC(C)(C)O3)nc1OC	97%		
COc1ccc(NC(=O)c2ccc3c(c2OC)C=CC(C)(C)O3)nc1OC	88.4%		
COc1ccc(N(CCOCc2ccccc2)C(=O)c2ccc3c(c2OC)C=CC(C)(C)O3)cc1OC	74.4%		
COc1ccc(N(CCC2CCNCC2)C(=O)c2ccc3c(c2OC)C=CC(C)(C)O3)nc1OC	55.2%	97.2%	
